US20100190683A1, “SOLIDIFIED DETERGENT COMPOSITIONS AND METHOD FOR PRODUCING THE SAME” (priority 2007, published 2010)

Columns and labels:
[1] = Solubility to tap water and behavior after dissolution of lyophilized samples; type: physicochemical; conditions: lyophilization 15 hours
Procedure: On the other hand, such a phenomenon was not seen when ethanol was added (Table 1). Therefore, in the conditions like the ethanol addition groups, the sample was prepared by using t-butyl alcohol in substitution for ethanol, and lyophilized for 15 hours. As a result, solidification (powderization) by lyophilization was possible in both samples. In addition, the solubility to tap water was good, and after dissolution, gelation or the like has not also happened (Table 2). Furthermore, ethanol or t-butyl alcohol was not added, and in the system which only HD was added, the solubility to tap water was good, and after dissolution, gelation or the like had not also happened (Table 2). In the system which as substitution for HD, a nonionic surfactant, polyoxyethylene sorbitan monolaurate (hereinafter referred to as PO) was added, this system was also examined, and then a similar good result was obtained.

[2] = Solubility to tap water of the substance obtained by azeotrope at 70° C.; type: physicochemical; conditions: surfactant HD, tap water of 5 mL
Procedure: In the undiluted solution of octadecyl dimethyl (3-trimethoxysilyl propyl) ammonium chloride (hereinafter referred to as QAS) which is an antimicrobial detergent, hexadecyl trimethyl ammonium (hereinafter referred to as HD), which was a cationic surfactant, was added, and for the azeotrope, a sample solution with the addition of acetone or ethanol was prepared, azeotrope was performed at 70° C. […] In the resultant gelated substance, tap water of 5 mL was added, but gelation advanced in many samples highly and solidification was occurred within several minutes to 1 hour, and those were not suitable for practical use (Table 1).

[3] = surfactant HD, solvent t-Butyl alcohol
[4] = surfactant HD, solvent: nothing
[5] = surfactant PO, solvent: nothing

CCCCCCCCCCCCCCCCCC[N+](C)(C)CCC[Si](OC)(OC)OC.[Cl-] [QAS, octadecyl dimethyl (3-trimethoxysilyl propyl) ammonium chloride]
Behavior after dissolution ([1]; surfactant HD, solvent Ethanol): No problem | Solubility to tap water ([1]; surfactant HD, solvent Ethanol): No problem | Behavior after dissolution [1, 3]: No problem | Solubility to tap water [1, 3]: No problem | Behavior after dissolution [1, 4]: No problem | Solubility to tap water [1, 4]: No problem | Behavior after dissolution [1, 5]: No problem | Solubility to tap water [1, 5]: No problem | Solubility to tap water ([2]; solvent addition Acetone): Gel→Consolidate | Solubility to tap water ([2]; solvent addition: nothing): Gel→Consolidate
